# Measurements as given in article PMC10784468 (Nature Communications, 2024).
# Read-outs that look alike come from different tables or passages of the source. Positions of bridges follow the written chain, without caps; N, C: chain ends. Residues, ends and D or L forms follow the SMILES beside them. *: point of attachment. X1 = O=C(O)c1ccc(-c2c3nc(c(-c4ccc(C(=O)O)cc4)c4ccc([nH]4)c(-c4ccc(C(=O)*)cc4)c4nc(c(-c5ccc(C(=O)O)cc5)c5ccc2[nH]5)C=C4)C=C3)cc1; X2 = O=C(O)C/C(=C/C(=O)*)C(=O)O
# Key:
# [1] = test system: PTGS2; assay: Tumor PTGS2 content detection; assay type: in vivo, BALB/c nude mice; conditions: EJ tumor tissues, 8 mg/kg i.v., versus PBS, Gi-F and Gi-F-SA
# Protocol: EJ tumor tissues were collected under euthanasia at the end of treatment and washed with PBS for 3 times. Afterwards, the immunofluorescence analyses of Prostaglandin-Endoperoxide Synthase 2 (PTGS2) expression were performed with Wuhan Servicebio Technology Co., Ltd.
# [2] = test system: HUVEC cells; assay type: cell-based; conditions: for Cell viability of HUVEC: HUVEC cells, pH=7.4
# Protocol: Supplementary Fig. 27. Viability of HUVEC cells after treated with Gi -F (pH=7.4) and Gi-F-CAA (pH=7.4) at different
# concentrations for 48 h (n=3 experimental repeats). Experiment was independently repeated three times with
# (1 picture or pasted object on this page, not shown here)
# [3] = test system: EJ cells; assay: Intracellular Fe2+ ions detection; assay type: cell-based; conditions: for intracellular Fe^2+ (FerroOrange fluorescence), pH 7.4: pH 7.4, 8 h
# Protocol: Initially, EJ cells (5 × 10^5) were cultured in confocal dish with a CO2 incubator overnight at 37 °C. […] Afterwards, EJ cells were washed with PBS for 3 times and replaced with culture mediums.
# [4] = log concentration (μM) 0, replicate 1
# [5] = log concentration (μM) 0, replicate 2
# [6] = log concentration (μM) 0, replicate 3
# [7] = log concentration (μM) 0.30103, replicate 1
# [8] = log concentration (μM) 0.30103, replicate 2
# [9] = log concentration (μM) 0.30103, replicate 3
# [10] = log concentration (μM) 0.60206, replicate 1
# [11] = log concentration (μM) 0.60206, replicate 2
# [12] = log concentration (μM) 0.60206, replicate 3
# [13] = log concentration (μM) 0.90309, replicate 1
# [14] = log concentration (μM) 0.90309, replicate 2
# [15] = log concentration (μM) 0.90309, replicate 3
# [16] = log concentration (μM) 1.20412, replicate 1
# [17] = log concentration (μM) 1.20412, replicate 2
# [18] = log concentration (μM) 1.20412, replicate 3
# [19] = log concentration (μM) 1.50515, replicate 1
# [20] = log concentration (μM) 1.50515, replicate 2
# [21] = log concentration (μM) 1.50515, replicate 3
# [22] = log concentration (μM) 1.80618, replicate 1
# [23] = log concentration (μM) 1.80618, replicate 2
# [24] = log concentration (μM) 1.80618, replicate 3
# [25] = log concentration (μM) 2.10721, replicate 1
# [26] = log concentration (μM) 2.10721, replicate 2
# [27] = log concentration (μM) 2.10721, replicate 3
# [28] = log concentration (μM) 2.40824, replicate 1
# [29] = log concentration (μM) 2.40824, replicate 2
# [30] = log concentration (μM) 2.40824, replicate 3
Molecule,"Cell viability of HUVEC [2, 4] [%]","Cell viability of HUVEC [2, 5] [%]","Cell viability of HUVEC [2, 6] [%]","Cell viability of HUVEC [2, 7] [%]","Cell viability of HUVEC [2, 8] [%]","Cell viability of HUVEC [2, 9] [%]","Cell viability of HUVEC [2, 10] [%]","Cell viability of HUVEC [2, 11] [%]","Cell viability of HUVEC [2, 12] [%]","Cell viability of HUVEC [2, 13] [%]","Cell viability of HUVEC [2, 14] [%]","Cell viability of HUVEC [2, 15] [%]","Cell viability of HUVEC [2, 16] [%]","Cell viability of HUVEC [2, 17] [%]","Cell viability of HUVEC [2, 18] [%]","Cell viability of HUVEC [2, 19] [%]","Cell viability of HUVEC [2, 20] [%]","Cell viability of HUVEC [2, 21] [%]","Cell viability of HUVEC [2, 22] [%]","Cell viability of HUVEC [2, 23] [%]",also measured
CC(C)C[C@H](NC(=O)c1ccc(-c2c3nc(c(-c4ccc(C(=O)O)cc4)c4ccc([nH]4)c(-c4ccc(C(=O)O)cc4)c4nc(c(-c5ccc(C(=O)O)cc5)c5ccc2[nH]5)C=C4)C=C3)cc1)C(=O)N[C@@H](CCCCNC(=O)/C=C(/CC(=O)O)C(=O)O)C(=O)N[C@@H](CC(C)C)C(=O)N[C@@H](CCCCN)C(=O)N[C@@H](CC(C)C)C(=O)N[C@@H](CCCCNC(=O)/C=C(/CC(=O)O)C(=O)O)C(=O)NCC(=O)N[C@@H](C)C(=O)N[C@H]1CSSC[C@@H](C(=O)N2CCC[C@H]2C(=O)N[C@H](C(=O)O)C(C)C)NC(=O)[C@@H]2CCCN2C(=O)[C@H](Cc2ccc(O)cc2)NC(=O)[C@H](CC(C)C)NC(=O)[C@@H]2CCCN2C(=O)[C@H](CC(C)C)NC(=O)[C@H](Cc2c[nH]c3ccccc23)NC(=O)[C@H](CC(N)=O)NC1=O [Gi-F-CAA] (X1-LK(X2)LKLK(X2)GACNWLPLYPCPV-OH; disulfide 9-17; C-terminus assumed),101.3,99.35,93.55,97.11,93.48,94.74,97.32,86.5,95.44,84.68,94.46,84.96,84.75,89.22,82.31,77.42,83.56,82.86,75.32,80.77,"PTGS2 levels of tumor tissues [1]: elevation; Cell viability of HUVEC [2, 24]: 73.08%; Cell viability of HUVEC [2, 25]: 65.68%; Cell viability of HUVEC [2, 26]: 64.77%; Cell viability of HUVEC [2, 27]: 61.91%; Cell viability of HUVEC [2, 28]: 56.53%; Cell viability of HUVEC [2, 29]: 48.01%; Cell viability of HUVEC [2, 30]: 52.83%; intracellular Fe^2+ (FerroOrange fluorescence), pH 6.5 ([3]; EJ cells, pH 6.5, 40 μM, 8 h): substantially enhanced fluorescence; intracellular Fe^2+ (FerroOrange fluorescence), pH 7.4 ([3]; EJ cells): no remarkable fluorescence; Concentrations of Fe2+ ions ([3]; pH=6.5, replicate #1): 22.485 ng/104cells; Concentrations of Fe2+ ions ([3]; pH=6.5, replicate #2): 27.487 ng/104cells; Concentrations of Fe2+ ions ([3]; pH=6.5, replicate #3): 29.009 ng/104cells; Concentrations of Fe2+ ions ([3]; pH=7.4, replicate #1): 12.656 ng/104cells; Concentrations of Fe2+ ions ([3]; pH=7.4, replicate #2): 15.918 ng/104cells; Concentrations of Fe2+ ions ([3]; pH=7.4, replicate #3): 12.221 ng/104cells"
FeTCPP-LKLKLKGACNWLPLYPCPV (disulfide) [Gi-F],101.3,99.35,85.17,83.14,92.08,87.75,84.4,84.96,81.47,84.05,81.61,70.99,70.71,64.63,61.91,57.51,49.41,55.06,45.98,47.94,"Cell viability of HUVEC [2, 24]: 46.54%; Cell viability of HUVEC [2, 25]: 37.74%; Cell viability of HUVEC [2, 26]: 31.25%; Cell viability of HUVEC [2, 27]: 33.97%; Cell viability of HUVEC [2, 28]: 21.61%; Cell viability of HUVEC [2, 29]: 25.66%; Cell viability of HUVEC [2, 30]: 20.7%; cytotoxicity toward normal cells compared with Gi-F-CAA ([2]; pH 7.4): obvious increased cytotoxicity"
"FeTCPP-LKLKLK(SA)GACNWLPLYPCPV (disulfide) [Gi-F-SA, control conjugate decorated with non-sensitive succinic anhydride (SA) moieties]",–,–,–,–,–,–,–,–,–,–,–,–,–,–,–,–,–,–,–,–,"intracellular Fe^2+ (FerroOrange fluorescence), pH 7.4 ([3]; EJ cells): no remarkable fluorescence; Concentrations of Fe2+ ions ([3]; pH=7.4, replicate #1): 13.222 ng/104cells; Concentrations of Fe2+ ions ([3]; pH=7.4, replicate #2): 11.221 ng/104cells; Concentrations of Fe2+ ions ([3]; pH=7.4, replicate #3): 12.7 ng/104cells"
